≈ marks a conversion by molar mass, not a printed value.
Tested on: HIV-1 (RF)
Test: HIV RNA assay: microplate based compound evaluation in HIV-1 infected MT-2 cells
Assay type: cell-based
Details: Human immunodeficiency virus 1, MT2, 72 h; HIV-1 (RF) infected MT-2 cells, 3 days of culture; virus dilution selected to give this value (inoculum standardisation); read-out: IC90 value (concentration of compound required to reduce the HIV RNA level by 90%)
Description: MT-2 and MT-4 cells were maintained in RPMI 1640 supplemented with 5% fetal calf serum (FCS) for MT-2 cells or 10% FCS for MT-4 cells, 2 mM L-glutamine and 50 μg/mL gentamycin, all from Gibco. HIV-1 RF was propagated in MT-4 cells in the same medium. Virus stocks were prepared approximately 10 days after acute infection of MT-4 cells and stored as aliquots at −70° C. Infectious titers of HIV-1 (RF) stocks were 1-3×10^7 PFU (plaque forming units)/mL as measured by plaque assay on MT-2 cells (see below). Each aliquot of virus stock used for infection was thawed only once.
For evaluation of antiviral efficacy, cells to be infected were subcultured one day prior to infection. […]
Cell lysates or purified RNA in 3 M or 5 M GED were mixed with 5 M GED and capture probe to a final guanidinium isothiocyanate concentration of 3 M and a final biotin oligonucleotide concentration of 30 nM. […] Immobilized alkaline phosphatase activity was detected by addition of 100 μL of 0.2 mM 4-methylumbelliferyl phosphate (MUBP, JBL Scientific) in buffer δ(2.5 M diethanolamine pH 8.9 (JBL Scientific), 10 mM MgCl2, 5 mM zinc acetate dihydrate and 5 mM N-hydroxyethyl-ethylene-diamine-triacetic acid). […] Fluorescence at […] was measured using a microplate fluorometer (Dynateck) exciting at […]. […]

IC90: 0.2 µg/mL (≈ 0.947 µM)
SMILES: Nc1ccn([C@H]2CC[C@@H](CO)O2)c(=O)n1 [ddC, 2′,3′-dideoxycytidine]

From patent US6946469B2, “Cyanamide, alkoxyamino, and urea derivatives of 4,4-disubstituted-3,4-dihydro-2(1H)-quinazolinones as HIV reverse transcriptase inhibitors” (Bristol-Myers Squibb Pharma Company, priority 2001, dated 2005)
